# In article PMC5126668 (PeerJ, 2016):
# Several values for one entry are separate records, joined by “and”; a condition that tells them apart may be missing. Identical values can stand only once.
# What was measured:
# HK-2 cells = assay: HK-2 cell viability, MTT assay, with or without co-cultured HLMs; assay type: cell-based, human; conditions: GA 100 µM alone
# Experimental: HK-2 cells obtained from Peking Union Medical College were maintained in D/F12 medium containing 10% fetal bovine serum, 2 mM glutamine and 1 × 10^5 U/L penicillin and streptomycin at 37 °C in a 5% CO2 atmosphere. […] The samples containing HLMs were prepared in an ice bath, and three replicates were tested for each dose. In brief, HK-2 cells (100 µL) were seeded at 3 × 10^5cells/mL in 96-well plates. After 12 h, 200 µL of the test compound was added. For the BAK and GA with HLMs group, GA was pre-incubated with NADPH in HLMs for 30 min at 37 °C and then mixed with BAK; for the other groups, all tested compounds except NADPH were mixed, and NADPH was then added to start the metabolic reaction. After 4 h of culture, 100 µL of 0.5 g/L MTT was added, and the cells were cultured for 4 h. Subsequently, 150 µL of 4% isopropanol was added to cells for 15 min at 37 °C, and the absorbance at 570 nm was then read by a microplate reader (Multiskan MK3, Thermo, USA). The relative cell viability (%) was calculated as follows: Mean Absorbance of Sample/Mean Absorbance of Vehicle Control × 100%.
# CYP3A4 = biological target: T1, CYP3A4 (Homo sapiens, UniProt P08684); assay: Inhibition of CYP activities by GA in HLMs (midazolam); assay type: biochemical
# T1 construct: was investigated in HLMs; tissue iPhase Pharmaceutical Services (Beijing, China) Lot # 7MMC011; host or cells: pooled human liver microsomes
# Experimental: (§1) The samples containing HLMs were prepared in an ice bath, and three replicates of each dose were tested.
# (§2) The reaction system consisted of 0.5 g/L HLMs, 1 mM NADPH, 25 µM phenacetin (CYP1A2 substrate), 25 µM tolbutamide (CYP2C9 substrate), 25 µM mephenytoin (CYP2C19 substrate), 10 µM dextromethorphan (CYP2D6 substrate) and 10 µM midazolam (CYP3A4 substrate). After incubation at 37 °C for 30 min, 200 µL of methanol containing 100 µg/L propranolol hydrochloride was added to terminate the reaction. The samples were then treated, and the corresponding substrate metabolites of CYP isoforms were detected according to a previously described method ([Shen et al., 2013]).
# BAK metabolism in HLMs = assay: Metabolic elimination of BAK in HLMs and its inhibition by GA (HPLC); assay type: in vitro ADME, human; conditions: for Remaining percentage of GA (%) / Inhibition of BAK by GA (%): 30 min, mean; for Inhibition of BAK by GA, single samples / remaining of GA (%), single samples: t=30 min
# Experimental: The HLM mixtures were prepared on ice. […] At the end of the incubation (0 or 30 min), 200 µL of methanol-acetonitrile (1:1, V:V) solution containing tanshinone II A (internal standard) was added to terminate the reaction. The mixtures were then vortexed for 2 min followed by centrifugation at 14,500 rpm for 10 min. A 10 µL aliquot of the supernatant was then injected for HPLC analysis. […] RContr is the percentage of BAK remaining in the BAK group.
# CYP2C19 = biological target: T2, CYP2C19 (Homo sapiens, UniProt P33261); assay: Inhibition of CYP activities by GA in HLMs (mephenytoin); assay type: biochemical
# T2 construct: was investigated in HLMs; tissue iPhase Pharmaceutical Services (Beijing, China) Lot # 7MMC011; host or cells: pooled human liver microsomes
# Experimental: as §1, §2
# CYP2D6 = biological target: T3, CYP2D6 (Homo sapiens, UniProt P10635); assay: Inhibition of CYP activities by GA in HLMs (dextromethorphan); assay type: biochemical
# T3 construct: was investigated in HLMs; tissue iPhase Pharmaceutical Services (Beijing, China) Lot # 7MMC011; host or cells: pooled human liver microsomes
# Experimental: as §1, §2
# T2 sequence (P33261 whole entry): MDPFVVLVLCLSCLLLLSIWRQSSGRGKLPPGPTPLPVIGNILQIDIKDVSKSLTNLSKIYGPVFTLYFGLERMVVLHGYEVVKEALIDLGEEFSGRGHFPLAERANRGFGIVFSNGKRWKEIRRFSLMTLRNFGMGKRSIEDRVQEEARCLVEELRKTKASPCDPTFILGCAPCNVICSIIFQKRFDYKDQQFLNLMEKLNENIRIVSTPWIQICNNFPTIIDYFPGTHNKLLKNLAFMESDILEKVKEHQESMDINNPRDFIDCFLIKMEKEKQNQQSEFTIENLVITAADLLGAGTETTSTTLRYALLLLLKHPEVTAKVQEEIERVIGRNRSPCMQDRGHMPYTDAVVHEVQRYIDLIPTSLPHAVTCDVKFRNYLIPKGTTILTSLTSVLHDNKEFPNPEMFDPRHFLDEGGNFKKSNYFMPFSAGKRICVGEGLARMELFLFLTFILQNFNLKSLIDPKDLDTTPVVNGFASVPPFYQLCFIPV
# T1 sequence (P08684 whole entry): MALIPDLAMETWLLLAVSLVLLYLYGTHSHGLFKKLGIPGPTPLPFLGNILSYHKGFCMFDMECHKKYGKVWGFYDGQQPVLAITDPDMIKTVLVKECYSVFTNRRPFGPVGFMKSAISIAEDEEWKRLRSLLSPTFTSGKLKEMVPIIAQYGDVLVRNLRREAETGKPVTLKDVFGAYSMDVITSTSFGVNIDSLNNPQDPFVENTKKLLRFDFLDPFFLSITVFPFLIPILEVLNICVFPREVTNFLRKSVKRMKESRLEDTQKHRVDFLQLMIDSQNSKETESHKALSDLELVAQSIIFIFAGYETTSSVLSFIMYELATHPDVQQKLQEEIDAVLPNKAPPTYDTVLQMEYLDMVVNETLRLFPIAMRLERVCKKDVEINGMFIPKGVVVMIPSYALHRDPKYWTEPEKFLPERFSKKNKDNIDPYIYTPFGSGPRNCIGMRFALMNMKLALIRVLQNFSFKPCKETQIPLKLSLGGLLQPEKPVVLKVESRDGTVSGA
# T3 sequence (P10635 whole entry): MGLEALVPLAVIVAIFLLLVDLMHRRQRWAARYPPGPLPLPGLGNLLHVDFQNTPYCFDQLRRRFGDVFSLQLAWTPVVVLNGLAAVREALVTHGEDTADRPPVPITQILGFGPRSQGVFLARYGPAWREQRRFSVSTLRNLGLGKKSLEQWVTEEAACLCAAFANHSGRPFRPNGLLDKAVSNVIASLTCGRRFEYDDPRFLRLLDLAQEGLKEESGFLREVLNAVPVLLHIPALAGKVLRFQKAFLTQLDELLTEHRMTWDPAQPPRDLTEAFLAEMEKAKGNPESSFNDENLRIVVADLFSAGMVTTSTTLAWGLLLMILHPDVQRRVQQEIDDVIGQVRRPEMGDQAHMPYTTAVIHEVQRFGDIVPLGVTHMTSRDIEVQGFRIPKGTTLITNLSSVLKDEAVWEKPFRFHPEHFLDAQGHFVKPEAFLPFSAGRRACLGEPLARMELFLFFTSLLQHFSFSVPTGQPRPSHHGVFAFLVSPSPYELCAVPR
compound,measurement,setting,value
"CC1(C)[C@@H](O)CC[C@]2(C)[C@H]3C(=O)C=C4[C@@H]5C[C@@](C)(C(=O)O)CC[C@]5(C)CC[C@@]4(C)[C@]3(C)CC[C@@H]12 [GA, Glycyrrhetinic acid]",effect on HK-2 cell survival,HK-2 cells,did not affect
same,IC50,"CYP3A4; HLMs, 30 min pre-incubation with NADPH, midazolam 10 µM, µM",1.53 ± 2.25 µM
same,"activity at 30 min, 0.1 µM","CYP3A4; human, human liver microsomes, probe midazolam (10 µM), CYP3A4-30min, GA 0.10, vs control, read-out: Relative activity (%)",95.9%
same,"activity at 30 min, 1 µM","CYP3A4; human, human liver microsomes, probe midazolam (10 µM), CYP3A4-30min, GA 1.00, vs control, read-out: Relative activity (%)",64.6%
same,"activity at 30 min, 6.25 µM","CYP3A4; human, human liver microsomes, probe midazolam (10 µM), CYP3A4-30min, GA 6.25, vs control, read-out: Relative activity (%)",39.1%
same,"activity at 30 min, 31.25 µM","CYP3A4; human, human liver microsomes, probe midazolam (10 µM), CYP3A4-30min, GA 31.25, vs control, read-out: Relative activity (%)",13.5%
same,"activity at 30 min, 100 µM","CYP3A4; human, human liver microsomes, probe midazolam (10 µM), CYP3A4-30min, GA 100.00, vs control, read-out: Relative activity (%)",15.2%
same,"activity at 30 min, 156.25 µM","CYP3A4; human, human liver microsomes, probe midazolam (10 µM), CYP3A4-30min, GA 156.25, vs control, read-out: Relative activity (%)",13.1%
same,"activity at 30 min, 312.5 µM","CYP3A4; human, human liver microsomes, probe midazolam (10 µM), CYP3A4-30min, GA 312.50, vs control, read-out: Relative activity (%)",0.261%
same,"activity at 30 min, 1000 µM","CYP3A4; human, human liver microsomes, probe midazolam (10 µM), CYP3A4-30min, GA 1000.00, vs control, read-out: Relative activity (%)",0.298%
same,"activity at 30 min, […]","CYP3A4; human, human liver microsomes, probe midazolam (10 µM), read-out: Relative activity (%)",3.63%
same,Remaining percentage of GA (%),"BAK metabolism in HLMs; GA 12.5 µM with BAK 10 µM, HLMs",99.37 ± 9.39% and 99.37%
same,Inhibition of BAK by GA (%),"BAK metabolism in HLMs; GA 12.5 µM, BAK 10 µM, HLMs",23% and 22.72 ± 4.55% and 22.72%
same,"Inhibition of BAK by GA, single samples","BAK metabolism in HLMs; GA 12.5 µM, BAK 10 µM",17.95% and 23.22% and 27.00%
same,"remaining of GA (%), single samples","BAK metabolism in HLMs; GA 12.5 µM, BAK 10 µM",94.84% and 93.11% and 110.17%
same,Remaining percentage of GA (%),"BAK metabolism in HLMs; GA 62.5 µM with BAK 10 µM, HLMs",100.7 ± 12.33% and 100.77%
same,Inhibition of BAK by GA (%),"BAK metabolism in HLMs; GA 62.5 µM, BAK 10 µM, HLMs",44% and 43.85 ± 22.41% and 43.85%
same,"remaining of GA (%), single samples","BAK metabolism in HLMs; GA 62.5 µM, BAK 10 µM",112.61% and 101.67% and 88.01%
same,"remaining of GA (%), single samples","BAK metabolism in HLMs; GA 93.75 µM, BAK 10 µM",94.57% and 101.22%
same,Remaining percentage of GA (%),"BAK metabolism in HLMs; GA 125.0 µM with BAK 10 µM, HLMs",107.8 ± 7.54% and 107.76%
same,Inhibition of BAK by GA (%),"BAK metabolism in HLMs; GA 125.0 µM, BAK 10 µM, HLMs",92% and 92.00 ± 4.64%
same,"Inhibition of BAK by GA, single samples","BAK metabolism in HLMs; GA 125 µM, BAK 10 µM",97.25% and 88.45% and 90.28%
same,"remaining of GA (%), single samples","BAK metabolism in HLMs; GA 125 µM, BAK 10 µM",101.56% and 105.56% and 116.14%
same,GA concentrations at which significant inhibition of BAK metabolic clearance was observed,"BAK metabolism in HLMs; HLMs, BAK 10 µM",above 12.5 µM
same,IC50,"CYP2C19; HLMs, 30 min pre-incubation with NADPH, mephenytoin 25 µM",175.2 ± 1.26 µM
same,"activity at 30 min, 0.1 µM","CYP2C19; human, human liver microsomes, probe mephenytoin (25 µM), CYP2C19-30min, GA 0.1000, vs control, read-out: Relative activity (%)",117%
same,"activity at 30 min, 1 µM","CYP2C19; human, human liver microsomes, probe mephenytoin (25 µM), CYP2C19-30min, GA 1.0000, vs control, read-out: Relative activity (%)",105%
same,"activity at 30 min, 6.25 µM","CYP2C19; human, human liver microsomes, probe mephenytoin (25 µM), CYP2C19-30min, GA 6.2500, vs control, read-out: Relative activity (%)",88%
same,"activity at 30 min, 31.25 µM","CYP2C19; human, human liver microsomes, probe mephenytoin (25 µM), CYP2C19-30min, GA 31.2500, vs control, read-out: Relative activity (%)",80%
same,"activity at 30 min, 100 µM","CYP2C19; human, human liver microsomes, probe mephenytoin (25 µM), CYP2C19-30min, GA 100.0000, vs control, read-out: Relative activity (%)",72.5%
same,"activity at 30 min, 156.25 µM","CYP2C19; human, human liver microsomes, probe mephenytoin (25 µM), CYP2C19-30min, GA 156.2500, vs control, read-out: Relative activity (%)",57.9%
same,"activity at 30 min, 312.5 µM","CYP2C19; human, human liver microsomes, probe mephenytoin (25 µM), CYP2C19-30min, GA 312.5000, vs control, read-out: Relative activity (%)",0%
same,"activity at 30 min, […]","CYP2C19; human, human liver microsomes, probe mephenytoin (25 µM), read-out: Relative activity (%)",36.8%
same,IC50,"CYP2D6; HLMs, 30 min pre-incubation with NADPH, dextromethorphan 10 µM",263 ± 1.05 µM
same,"activity at 30 min, 0.1 µM","CYP2D6; human, human liver microsomes, probe dextromethorphan (10 µM), CYP2D6-30min, GA 0.10, vs control, read-out: Relative activity (%)",96.4%
same,"activity at 30 min, 1 µM","CYP2D6; human, human liver microsomes, probe dextromethorphan (10 µM), CYP2D6-30min, GA 1.00, vs control, read-out: Relative activity (%)",92.4%
same,"activity at 30 min, 6.25 µM","CYP2D6; human, human liver microsomes, probe dextromethorphan (10 µM), CYP2D6-30min, GA 6.25, vs control, read-out: Relative activity (%)",96%
same,"activity at 30 min, 31.25 µM","CYP2D6; human, human liver microsomes, probe dextromethorphan (10 µM), CYP2D6-30min, GA 31.25, vs control, read-out: Relative activity (%)",91.1%
same,"activity at 30 min, 100 µM","CYP2D6; human, human liver microsomes, probe dextromethorphan (10 µM), CYP2D6-30min, GA 100.00, vs control, read-out: Relative activity (%)",85.1%
same,"activity at 30 min, 156.25 µM","CYP2D6; human, human liver microsomes, probe dextromethorphan (10 µM), CYP2D6-30min, GA 156.25, vs control, read-out: Relative activity (%)",81.7%
same,"activity at 30 min, 312.5 µM","CYP2D6; human, human liver microsomes, probe dextromethorphan (10 µM), CYP2D6-30min, GA 312.50, vs control, read-out: Relative activity (%)",42%
same,"activity at 30 min, 1000 µM","CYP2D6; human, human liver microsomes, probe dextromethorphan (10 µM), CYP2D6-30min, GA 1000.00, vs control, read-out: Relative activity (%)",29.3%
same,"activity at 30 min, […]","CYP2D6; human, human liver microsomes, probe dextromethorphan (10 µM), read-out: Relative activity (%)",69.7%
